From US9808014B2, “Active-powder biocidal composition comprising at least one copper salt and at least one zinc salt and the method for the production thereof” (Textil Copper Andino S.A. [CL/CL], priority 2011, dated 2017)

Experiments:
Subtilis bacteria = details: Cu^+ ions; cited from earlier work
Staphylococcus aureus = details: Cu^+ ions; cited from earlier work
[1] = Solubility constant in aqueous solution (Kps)

Compound	MIC value for copper (Subtilis bacteria) [nM]	MIC value for copper (Staphylococcus aureus) [nM]	Group (classification according to Kps value) [1]
[Cu] [copper]	40	350	
Copper (I)Hydroxide			B (Group B: salts with a Kps within a range that goes from a value greater than 9*10^−16 until a value equal to or less than 9*10^−11.)
Copper(I)Phthalocyanine			B (Group B: salts with a Kps within a range that goes from a value greater than 9*10^−16 until a value equal to or less than 9*10^−11.)
[OH][Cu][OH] [Copper (II)Hydroxide]			C (Group C: salts with a Kps within a range that goes from a value greater than or equal to 1*10^−20 until a value equal to or less than 9*10^−16.)
Copper(I) Oxide			B (Group B: salts with a Kps within a range that goes from a value greater than 9*10^−16 until a value equal to or less than 9*10^−11.)
